Data: patent US20060258697A1, “Method of augmenting the antitumor activity of anticancer agents” (priority 2003, published 2006)
Where two headings read alike, the source gives them in different places.

How the values were obtained:
[1] = system: A253 squamous cell carcinoma of the head and neck xenografts; test: Cure rate / antitumor activity in nude mice bearing A253 head and neck xenografts; assay type: in vivo
Experimental: (§1) 5-Methylselenocysteine (MSC). Two schedules were evaluated: 1) in combination with irinotecan, MSC (0.2 mg/mouse/d×28) was administered orally for 28 days with the first dose administered daily for seven days prior to the weekly drug administration and 2) in combination with other drugs, MSC was administered orally (0.2 mg/mouse/d×14) daily for 14 days with the first dose administered daily for seven days prior to the single i.v. administration of taxol, CDDP, Dox, taxotere and cyclophosphamide.
(§2) Anticancer drug administration. The anticancer drugs administration schedule was as follows. • i. Irinotecan (CPT-11), weekly i.v. push for four (4) weeks, • ii. Taxol, single i.v. push, • iii. Cisplatin (CDDP), single i.v. push. • iv. Doxorubin (Dox), single i.v. push. • v. Cyclophosphamide, single i.v. push. • vi. Oxaliplatin, single i.v. push • vii. Taxotere, single i.v. push
(§3) Tumor Xenografts. […] The following tumor xenografts were established. • i. HCT-8: poorly-differentiated colon carcinoma, expressing wild type p53 • ii. HT-29: well-differentiated colon carcinoma expressing mutant p53 • iii. A253: well-differentiated squamous cell carcinoma of the head and neck (SCCHN) expressing no p53 • iv. FaDu: poorly-differentiated squamous cell carcinoma of the head and neck (SCCHN) expressing mutant p53
This example describes the comparative antitumor activity of MSC and SLM in combination with the maximum tolerated dose of irinotecan. […] As an illustration, MSC and SLM were used in combination with irinotecan. The results, shown in FIG. 3, represent a comparative evaluation of the effect of MSC and SLM (0.2 mg/mouse/d×28) on the antitumor activity of irinotecan (100 mg/kg/wk×4).
To determine whether therapeutic synergy achieved with irinotecan in xenografts is specific for MSC, the antitumor activity of irinotecan with and without two selenium-containing compounds, MSC and SLM were compared in xenografts bearing A253 (SCCHN) tumors for the […] (200 mg/kg/wk×4). The data compare the antitumor activity of MSC with SLM in combination with irinotecan (200 mg/kg/wk×4).
(§4) This example describes the modulation of the antitumor activity of anticancer drugs by MSC in mice bearing human tumors. […] To determine whether modulation of the therapeutic efficacy and cure of irinotecan by MSC is drug specific, the antitumor activity of drugs, representing different classes and mechanisms of action were evaluated alone and in combination with non-toxic doses and schedules of MSC (0.2 mg/mouse/d×14) in xenografts bearing human A253 and FaDu (SCCHN) tumors (FIG. 5). The data in FIG. 5 represent the use of the MTD doses of cisplatin (8 mg/kg×1), cyclophosphamide (100 mg/kg×1), taxol (35 mg/kg ×1.) and doxorubicin (10 mg/kg×1).

[2] = system: FaDu squamous cell carcinoma of the head and neck xenografts; test: Cure rate / antitumor activity in nude mice bearing FaDu head and neck xenografts; assay type: in vivo; conditions: for % CR of Surviving Animals FaDu: without or with MSC 0.2 mg/mouse/d
Experimental: as §1, §2
Tumor Xenografts. […] The following tumor xenografts were established. • i. HCT-8: poorly-differentiated colon carcinoma, expressing wild type p53 • ii. HT-29: well-differentiated colon carcinoma expressing mutant p53 • iii. A253: well-differentiated squamous cell carcinoma of the head and neck (SCCHN) expressing no p53 • iv. FaDu: poorly-differentiated squamous cell carcinoma of the head and neck (SCCHN) expressing mutant p53 […]
as §4
In mice, MSC was orally administered at 0.2 mg/mouse/d with the first daily dose administered seven days prior to single i.v. administration of drug and continuous for additional seven days for a total MSC treatment of 14 days.

[3] = system: Mice
[4] = in vivo; conditions: nude, mouse
[5] = in vivo; conditions: rat
[6] = system: HCT-8 colon xenografts; test: Cure rate / antitumor activity in nude mice bearing HCT-8 colon xenografts; assay type: in vivo; conditions: for HCT-8 CR (%) / HCT-8 PR (%): drug 100 mg/kg/week i.v. × 4, MSC 0.2 mg/day/mouse p.o. 42 days started 21 days before drug; for % CR of Surviving Animals HCT-8: without or with MSC 0.2 mg/mouse/d
Experimental: as §1, §2, §3
(§5) This example describes the evaluation of the effect of selenium containing compounds on the antitumor activity of irinotecan. […] Irinotecan was administered at 100 mg/kg/wk for 4 weeks (MTD) and 200 mg/kg/wk for 4 weeks (toxic) alone and in combination with 0.2 mg/mouse/d of MSC for 28 days to nude mice bearing HCT-8 colon xenografts.
For these experiments, FUra was administered by i.v. push weekly times 4 and MSC by p.o. once a day for 6 weeks, the first dose being given 3 weeks before FUra administration. Irinotecan was administered by i.v. 100 mg/kg/week once a week for 4 weeks and MSC (0.2 mg/day), by p.o. daily for 28 days with the first dose started 7 days prior to irinotecan treatment.

[7] = system: HT-29 colon xenografts; test: Cure rate / antitumor activity in nude mice bearing HT-29 colon xenografts; assay type: in vivo; conditions: for HT-29 CR (%) / HT-29 PR (%): drug 100 mg/kg/week i.v. × 4, MSC 0.2 mg/day/mouse p.o. 42 days started 21 days before drug; for % CR of Surviving Animals HT-29: without or with MSC 0.2 mg/mouse/d
[8] = system: nude mice; test: Irinotecan lethality / survival with and without selenium compound; assay type: in vivo; conditions: for Survivor (%): without or with MSC 0.2 mg/mouse/d × 28 p.o.
Experimental: as §5, with “xenografts. […] Thus, MSC potentiates the efficacy of irinotecan by increasing cure rate and by decreasing toxicity.” for “xenografts.”
Nude mice (5 mice/group; experiment repeated ≧3 times) were treated with 0.2 mg/mouse/day of SLM (data replicated with MSC) for 21, 7, 3, 1, or 0 days prior to initiation of weekly IV irinotecan at 2 ×the MTD (at 200mg/kg/week×4). […] 3 days pre-treatment was associated with 80% survivorship while 0-1 days were associated with 60% (45% survivorship for irinotecan alone) (FIG. 13). Thus, the optimal duration of pre-treatment with SLM 0.2mg/mouse/day for maximum protection against irinotecan lethality was identified to be at least 1 week.

[9] = system: normal nude mice; test: Toxicity of selenium compounds alone in normal nude mice; assay type: in vivo; conditions: 0.2 mg/mouse/day for 28 days orally
Experimental: However, it was observed that when cure rates were evaluated, selenium increased the efficacy of only irinotecan and taxotere. While not intending to be bound by any particular theory, it is considered that potentiation of the efficacy of anticancer drugs is associated with increased antitumor activity and decreased toxicity.

[10] = system: rat; test: Reduction of doxorubicin toxicity by selenium compounds in rats; assay type: in vivo; conditions: 0.5 mg/day/rat daily for 14 days, started 7 days prior to doxorubicin; data not shown
[11] = system: Rats; conditions: oxaliplatin 10 mg/kg single i.v.; alone or with MSC […]
Experimental: In this example, the effect of selenium on the antitumor activity of oxaliplatin and doxorubicin was tested as follows. The effect of selenium was determined on the antitumor activity of oxaliplatin in rats bearing advanced ward colorectal carcinoma (3000 mg). Rats received MSC (0.75 mg/rat/d) or saline fourteen days prior to single i.v. injection of oxaliplatin of 5 and 10 mg/kg with continuous daily oral administration of MSC for additional seven days for a total of 21 days of MSC and oxaliplatin is administered on day 14 after saline and MSC treatment.

[12] = system: nude mice; conditions: taxotere 100 mg/kg single i.v.
Experimental: Taxotere was administered to nude mice at non-toxic (60 mg/kg) or toxic (100 mg/kg) dose by a single i.v. injection and MSC was administered by oral route daily for 14 days with the first dose of MSC started before taxotere treatment.

[13] = Table 3 (A253), drug dose mg/kg and MSC mg/mouse/day in parentheses of Treatment
[14] = Table 3 first column pair (head printed 'FaUra'), drug dose mg/kg and MSC mg/mouse/day in parentheses of Treatment
[15] = Table 3 first column pair (head printed 'FaUra'), drug dose mg/kg and MSC mg/mouse/day in parentheses of Treatment, schedules per footnote

N.N.[Cl][Pt][Cl] [Cisplatin, cisplatin]
CR (%) (complete tumor regression) [1, 13]: 0% | PR (%) (partial tumor regression, >50% tumor reduction) [1, 13]: 0% | PR (%) (partial tumor regression, >50% tumor reduction) [2, 14]: 0% | CR (%) (complete tumor regression) [2, 15]: 0% | MTD (mg/kg) Mice ([3]; drug alone (−) or with MSC (+)): 8 mg/kg

O=P1(N(CCCl)CCCl)NCCCO1 (stereo not shown) [Cyclophosphamide, cyclophosphamide]
CR (%) (complete tumor regression) ([1]; mouse, in vivo): 0% | PR (%) (partial tumor regression, >50% tumor reduction) ([1]; mouse, in vivo): 0% | CR (%) (complete tumor regression) ([2]; mouse, in vivo): 0% | PR (%) (partial tumor regression, >50% tumor reduction) ([2]; mouse, in vivo): 0% | MTD [4]: 100 mg/kg

COc1cccc2c1C(=O)c1c(O)c3c(c(O)c1C2=O)C[C@@](O)(C(=O)CO)C[C@@H]3O[C@H]1C[C@H](N)[C@H](O)[C@H](C)O1 [Doxorubicin, doxorubicin]
CR (%) (complete tumor regression) [1, 13]: 0% | PR (%) (partial tumor regression, >50% tumor reduction) [1, 13]: 60% | PR (%) (partial tumor regression, >50% tumor reduction) [2, 14]: 0% | CR (%) (complete tumor regression) [2, 15]: 0% | MTD (mg/kg) Mice ([3]; nude, mouse, in vivo): 10 mg/kg | MTD [5]: 6 mg/kg

O=c1[nH]cc(F)c(=O)[nH]1 [FUra]
HCT-8 CR (%) [6]: 0% | HCT-8 PR (%) [6]: 0% | HT-29 CR (%) [7]: 0% | HT-29 PR (%) [7]: 0% | CR (%) (complete tumor regression) [1, 13]: 0% | PR (%) (partial tumor regression, >50% tumor reduction) [1, 13]: 0% | CR (%) (complete tumor regression) [2, 15]: 0%

CCc1c2c(nc3ccc(OC(=O)N4CCC(N5CCCCC5)CC4)cc13)-c1cc3c(c(=O)n1C2)COC(=O)[C@]3(O)CC [Irinotecan, irinotecan]
HCT-8 CR (%) [6]: 20% | HCT-8 PR (%) [6]: 20% | % CR of Surviving Animals HCT-8 ([6]; irinotecan 100 mg/kg/wk × 4): 20% | % CR of Surviving Animals HCT-8 ([6]; irinotecan 200 mg/kg/wk × 4): 30% | HT-29 CR (%) [7]: 0% | HT-29 PR (%) [7]: 0% | % CR of Surviving Animals HT-29 ([7]; irinotecan 100 mg/kg/wk × 4): 0% | % CR of Surviving Animals HT-29 ([7]; irinotecan 200 mg/kg/wk × 4): 10% | CR (%) (complete tumor regression) [1, 13]: 10% | PR (%) (partial tumor regression, >50% tumor reduction) [1, 13]: 30% | % CR of Surviving Animals A253 ([1]; irinotecan 100 mg/kg/wk × 4, without or with MSC 0.2 mg/mouse/d): 20% | % CR of Surviving Animals A253 ([1]; irinotecan 200 mg/kg/wk × 4, without or with MSC or SLM 0.2 mg/mouse/d): 40% | PR (%) (partial tumor regression, >50% tumor reduction) [2, 14]: 50% | CR (%) (complete tumor regression) [2, 15]: 30% | % CR of Surviving Animals FaDu ([2]; irinotecan 100 mg/kg/wk × 4): 30% | % CR of Surviving Animals FaDu ([2]; irinotecan 200 mg/kg/wk × 4): 50% | Survivor (%) ([8]; irinotecan 100 mg/kg/wk × 4 i.v.): 100% | survivorship ([8]; irinotecan 200 mg/kg/week × 4 alone (Example 8)): 45% | Survivor (%) ([8]; irinotecan 200 mg/kg/wk × 4 i.v.): 50% | lethality ([8]; irinotecan 300 mg/kg/wk × 4, alone or with MSC): 100% | Survivor (%) ([8]; irinotecan 300 mg/kg/wk × 4 i.v.): 0% | maximum tolerated weekly dose ([3]; weekly i.v. for 4 weeks, nude mice): 100 mg/kg/wk

C[Se]C[C@H](N)C(=O)O [MSC, 5-methylselenocysteine]
lowest effective dose in attenuating irinotecan toxicity ([8]; nude mice, p.o. daily): 0.01 mg/day | toxicity of selenium compound alone [9]: not to be toxic | reducing toxicity of doxorubicin [10]: effective in reducing toxicity

O=C1[O][Pt]2([NH][C@@H]3CCCC[C@H]3[NH]2)[O]C1=O [Oxaliplatin, oxaliplatin]
CR (%) (complete tumor regression) ([1]; mouse, in vivo): 0% | PR (%) (partial tumor regression, >50% tumor reduction) ([1]; mouse, in vivo): 0% | CR (%) (complete tumor regression) ([2]; mouse, in vivo): 0% | PR (%) (partial tumor regression, >50% tumor reduction) ([2]; mouse, in vivo): 0% | MTD (mg/kg) Mice ([3]; drug alone (−) or with MSC (+)): 7.5 mg/kg | toxicity (weight loss and diarrhea) [11]: toxic

CC(=O)O[C@H]1C(=O)[C@@]2(C)[C@H]([C@H](OC(=O)c3ccccc3)[C@]3(O)C[C@H](OC(=O)[C@H](O)[C@@H](NC(=O)c4ccccc4)c4ccccc4)C(C)=C1C3(C)C)[C@]1(OC(C)=O)CO[C@@H]1C[C@@H]2O [Taxol]
CR (%) (complete tumor regression) [1, 13]: 0% | PR (%) (partial tumor regression, >50% tumor reduction) [1, 13]: 0% | PR (%) (partial tumor regression, >50% tumor reduction) [2, 14]: 0% | CR (%) (complete tumor regression) [2, 15]: 0% | MTD [5]: 50 mg/kg | MTD [4]: 35 mg/kg

CC(=O)O[C@@]12CO[C@@H]1C[C@H](O)[C@@]1(C)C(=O)[C@H](O)C3=C(C)[C@@H](OC(=O)[C@H](O)[C@@H](NC(=O)OC(C)(C)C)c4ccccc4)C[C@@](O)([C@@H](OC(=O)c4ccccc4)[C@H]21)C3(C)C [Taxotere]
CR (%) (complete tumor regression) [1]: 0% | PR (%) (partial tumor regression, >50% tumor reduction) [1]: 20% | animals cured of their tumors ([1]; A253, taxotere 60 mg/kg single i.v., alone or with MSC 0.2 mg/mouse/d × 14): insensitive | animals cured of their tumors ([2]; FaDu, taxotere 60 mg/kg single i.v., alone or with MSC 0.2 mg/mouse/d × 14): insensitive | PR (%) (partial tumor regression, >50% tumor reduction) [2, 14]: 40% | CR (%) (complete tumor regression) [2, 15]: 0% | lethality [12]: 40% | MTD [4]: 60 mg/kg

CC[C@@]1(O)C(=O)OCc2c1cc1n(c2=O)Cc2cc3c(CN(C)C)c(O)ccc3nc2-1 [Topotecan, topotecan]
CR (%) (complete tumor regression) [1, 13]: 0% | PR (%) (partial tumor regression, >50% tumor reduction) [1, 13]: 0% | PR (%) (partial tumor regression, >50% tumor reduction) [2, 14]: 0% | CR (%) (complete tumor regression) [2, 15]: 0%

CCCCCOC(=O)Nc1nc(=O)n([C@@H]2O[C@H](C)[C@@H](O)[C@H]2O)cc1F [Xeloda]
CR (%) (complete tumor regression) [1, 13]: 0% | PR (%) (partial tumor regression, >50% tumor reduction) [1, 13]: 0% | CR (%) (complete tumor regression) [2, 15]: 0%

O=[Se](O)O [sodium selenite]
reducing toxicity of doxorubicin [10]: not sodium selenite
